Experimental data: ChEMBL document CHEMBL2439971, “Design, synthesis and antiproliferative evaluation of fluorenone analogs with DNA topoisomerase I inhibitory properties” (Bioorg Med Chem, 2013)
Active and inactive are the calls of the source. The rule behind the calls is not given here.

What was measured:
[1] = tested on: U-251; assay: Cytotoxicity against human U251 cells at 10 uM after 48 hrs by sulforhodamine B assay relative to control; assay type: functional
[2] = tested on: K562; assay: Cytotoxicity against human K562 cells at 10 uM after 48 hrs by sulforhodamine B assay relative to control; assay type: functional
[3] = tested on: SN12C; assay: Cytotoxicity against human SN12C cells at 10 uM after 48 hrs by sulforhodamine B assay relative to control; assay type: functional
[4] = tested on: CAKI-1; assay: Cytotoxicity against human CAKI-1 cells at 10 uM after 48 hrs by sulforhodamine B assay relative to control; assay type: functional
[5] = tested on: SK-OV-3; assay: Cytotoxicity against human SKOV3 cells at 10 uM after 48 hrs by sulforhodamine B assay relative to control; assay type: functional
[6] = tested on: HL-60(TB); assay: Cytotoxicity against human HL-60(TB) cells at 10 uM after 48 hrs by sulforhodamine B assay relative to control; assay type: functional
[7] = tested on: UACC-62; assay: Cytotoxicity against human UACC62 cells at 10 uM after 48 hrs by sulforhodamine B assay relative to control; assay type: functional
[8] = tested on: Malme-3M; assay: Cytotoxicity against human MALME-3M cells at 10 uM after 48 hrs by sulforhodamine B assay relative to control; assay type: functional
[9] = tested on: MDA-MB-231; assay: Cytotoxicity against human MDA-MB-231 cells at 10 uM after 48 hrs by sulforhodamine B assay relative to control; assay type: functional
[10] = tested on: NCI-H23; assay: Cytotoxicity against human NCI-H23 cells at 10 uM after 48 hrs by sulforhodamine B assay relative to control; assay type: functional
[11] = tested on: MOLT-4; assay: Cytotoxicity against human MOLT4 cells at 10 uM after 48 hrs by sulforhodamine B assay relative to control; assay type: functional
[12] = tested on: A549; assay: Cytotoxicity against human A549 cells at 10 uM after 48 hrs by sulforhodamine B assay relative to control; assay type: functional
[13] = tested on: HT-29; assay: Cytotoxicity against human HT-29 cells at 10 uM after 48 hrs by sulforhodamine B assay relative to control; assay type: functional
[14] = species: Homo sapiens; assay: Inhibition of telomerase (unknown origin) at 10 uM TRAP assay
[15] = tested on: SK-MEL-28; assay: Cytotoxicity against human SK-MEL-28 cells at 10 uM after 48 hrs by sulforhodamine B assay relative to control; assay type: functional
[16] = tested on: RPMI-8226; assay: Cytotoxicity against human RPMI8226 cells at 10 uM after 48 hrs by sulforhodamine B assay relative to control; assay type: functional
[17] = tested on: NCI-H460; assay: Cytotoxicity against human NCI-H460 cells at 10 uM after 48 hrs by sulforhodamine B assay relative to control; assay type: functional
[18] = tested on: A498; assay: Cytotoxicity against human A498 cells at 10 uM after 48 hrs by sulforhodamine B assay relative to control; assay type: functional
[19] = tested on: OVCAR-8; assay: Cytotoxicity against human OVCAR8 cells at 10 uM after 48 hrs by sulforhodamine B assay relative to control; assay type: functional
[20] = tested on: HCC 2998; assay: Cytotoxicity against human HCC2998 cells at 10 uM after 48 hrs by sulforhodamine B assay relative to control; assay type: functional
[21] = tested on: UO-31; assay: Cytotoxicity against human UO31 cells at 10 uM after 48 hrs by sulforhodamine B assay relative to control; assay type: functional
[22] = tested on: SK-MEL-5; assay: Cytotoxicity against human SK-MEL-5 cells at 10 uM after 48 hrs by sulforhodamine B assay relative to control; assay type: functional
[23] = tested on: NCI-H226; assay: Cytotoxicity against human NCI-H226 cells at 10 uM after 48 hrs by sulforhodamine B assay relative to control; assay type: functional
[24] = tested on: BT-549; assay: Cytotoxicity against human BT549 cells at 10 uM after 48 hrs by sulforhodamine B assay relative to control; assay type: functional
[25] = tested on: UACC-257; assay: Cytotoxicity against human UACC257 cells at 10 uM after 48 hrs by sulforhodamine B assay relative to control; assay type: functional
[26] = tested on: NCI-H322M; assay: Cytotoxicity against human NCI-H322M cells at 10 uM after 48 hrs by sulforhodamine B assay relative to control; assay type: functional
[27] = tested on: PC-3; assay: Cytotoxicity against human PC3 cells at 10 uM after 48 hrs by sulforhodamine B assay relative to control; assay type: functional
[28] = tested on: SK-MEL-2; assay: Cytotoxicity against human SK-MEL-2 cells at 10 uM after 48 hrs by sulforhodamine B assay relative to control; assay type: functional
[29] = tested on: T47D; assay: Cytotoxicity against human T47D cells at 10 uM after 48 hrs by sulforhodamine B assay relative to control; assay type: functional
[30] = tested on: COLO 205; assay: Cytotoxicity against human COLO205 cells at 10 uM after 48 hrs by sulforhodamine B assay relative to control; assay type: functional
[31] = tested on: DU-145; assay: Cytotoxicity against human DU145 cells at 10 uM after 48 hrs by sulforhodamine B assay relative to control; assay type: functional
[32] = tested on: OVCAR-3; assay: Cytotoxicity against human OVCAR3 cells at 10 uM after 48 hrs by sulforhodamine B assay relative to control; assay type: functional
[33] = tested on: SW-620; assay: Cytotoxicity against human SW620 cells at 10 uM after 48 hrs by sulforhodamine B assay relative to control; assay type: functional
[34] = Cytotoxicity against human Hs 578T cells at 10 uM after 48 hrs by sulforhodamine B assay relative to control; assay type: functional
[35] = tested on: NCI/ADR-RES; assay: Cytotoxicity against human NCI/ADR-RES cells at 10 uM after 48 hrs by sulforhodamine B assay relative to control; assay type: functional
[36] = tested on: RXF 393; assay: Cytotoxicity against human RXF393 cells at 10 uM after 48 hrs by sulforhodamine B assay relative to control; assay type: functional
[37] = tested on: HCT-15; assay: Cytotoxicity against human HCT15 cells at 10 uM after 48 hrs by sulforhodamine B assay relative to control; assay type: functional
[38] = tested on: OVCAR-5; assay: Cytotoxicity against human OVCAR5 cells at 10 uM after 48 hrs by sulforhodamine B assay relative to control; assay type: functional
[39] = tested on: 786-0; assay: Cytotoxicity against human 786-0 cells at 10 uM after 48 hrs by sulforhodamine B assay relative to control; assay type: functional
[40] = tested on: IGROV-1; assay: Cytotoxicity against human IGROV1 cells at 10 uM after 48 hrs by sulforhodamine B assay relative to control; assay type: functional
[41] = tested on: HOP-62; assay: Cytotoxicity against human HOP62 cells at 10 uM after 48 hrs by sulforhodamine B assay relative to control; assay type: functional
[42] = tested on: ACHN; assay: Cytotoxicity against human ACHN cells at 10 uM after 48 hrs by sulforhodamine B assay relative to control; assay type: functional
[43] = tested on: SF-295; assay: Cytotoxicity against human SF295 cells at 10 uM after 48 hrs by sulforhodamine B assay relative to control; assay type: functional
[44] = tested on: HCT-116; assay: Cytotoxicity against human HCT116 cells at 10 uM after 48 hrs by sulforhodamine B assay relative to control; assay type: functional
[45] = tested on: HOP-92; assay: Cytotoxicity against human HOP92 cells at 10 uM after 48 hrs by sulforhodamine B assay relative to control; assay type: functional
[46] = tested on: M14; assay: Cytotoxicity against human M14 cells at 10 uM after 48 hrs by sulforhodamine B assay relative to control; assay type: functional
[47] = tested on: SNB-75; assay: Cytotoxicity against human SNB75 cells at 10 uM after 48 hrs by sulforhodamine B assay relative to control; assay type: functional
[48] = tested on: KM12; assay: Cytotoxicity against human KM12 cells at 10 uM after 48 hrs by sulforhodamine B assay relative to control; assay type: functional
[49] = tested on: SF-539; assay: Cytotoxicity against human SF539 cells at 10 uM after 48 hrs by sulforhodamine B assay relative to control; assay type: functional
[50] = tested on: NCI-H522; assay: Cytotoxicity against human NCI-H522 cells at 10 uM after 48 hrs by sulforhodamine B assay relative to control; assay type: functional
[51] = tested on: SF-268; assay: Cytotoxicity against human SF268 cells at 10 uM after 48 hrs by sulforhodamine B assay relative to control; assay type: functional
[52] = tested on: CCRF-CEM; assay: Cytotoxicity against human CCRF-CEM cells at 10 uM after 48 hrs by sulforhodamine B assay relative to control; assay type: functional
[53] = tested on: MCF7; assay: Cytotoxicity against human MCF7 cells at 10 uM after 48 hrs by sulforhodamine B assay relative to control; assay type: functional
[54] = tested on: MDA-MB-468; assay: Cytotoxicity against human MDA-MB-468 cells at 10 uM after 48 hrs by sulforhodamine B assay relative to control; assay type: functional
[55] = tested on: PC-3; assay: Cytotoxicity against human PC3 cells after 48 hrs by sulforhodamine B assay; assay type: functional, cell-based; settings: PC-3, 48 h
[56] = tested on: SNB-19; assay: Cytotoxicity against human SNB19 cells at 10 uM after 48 hrs by sulforhodamine B assay relative to control; assay type: functional
[57] = tested on: MDA-MB-435; assay: Cytotoxicity against human MDA-MB-435 cells at 10 uM after 48 hrs by sulforhodamine B assay relative to control; assay type: functional
[58] = tested on: LOX IMVI; assay: Cytotoxicity against human LOXIMVI cells at 10 uM after 48 hrs by sulforhodamine B assay relative to control; assay type: functional
[59] = Cytotoxicity against human NCI60 cells; assay type: functional
[60] = target: DNA topoisomerase 1 (Homo sapiens) (UniProt P11387); assay: Inhibition of recombinant human DNA topoisomerase 1-mediated relaxation of supercoiled pHOT DNA at 25 to 50 uM after 45 mins by agarose gel electrophoresis
Chain of DNA topoisomerase 1 (Homo sapiens) (P11387 whole entry): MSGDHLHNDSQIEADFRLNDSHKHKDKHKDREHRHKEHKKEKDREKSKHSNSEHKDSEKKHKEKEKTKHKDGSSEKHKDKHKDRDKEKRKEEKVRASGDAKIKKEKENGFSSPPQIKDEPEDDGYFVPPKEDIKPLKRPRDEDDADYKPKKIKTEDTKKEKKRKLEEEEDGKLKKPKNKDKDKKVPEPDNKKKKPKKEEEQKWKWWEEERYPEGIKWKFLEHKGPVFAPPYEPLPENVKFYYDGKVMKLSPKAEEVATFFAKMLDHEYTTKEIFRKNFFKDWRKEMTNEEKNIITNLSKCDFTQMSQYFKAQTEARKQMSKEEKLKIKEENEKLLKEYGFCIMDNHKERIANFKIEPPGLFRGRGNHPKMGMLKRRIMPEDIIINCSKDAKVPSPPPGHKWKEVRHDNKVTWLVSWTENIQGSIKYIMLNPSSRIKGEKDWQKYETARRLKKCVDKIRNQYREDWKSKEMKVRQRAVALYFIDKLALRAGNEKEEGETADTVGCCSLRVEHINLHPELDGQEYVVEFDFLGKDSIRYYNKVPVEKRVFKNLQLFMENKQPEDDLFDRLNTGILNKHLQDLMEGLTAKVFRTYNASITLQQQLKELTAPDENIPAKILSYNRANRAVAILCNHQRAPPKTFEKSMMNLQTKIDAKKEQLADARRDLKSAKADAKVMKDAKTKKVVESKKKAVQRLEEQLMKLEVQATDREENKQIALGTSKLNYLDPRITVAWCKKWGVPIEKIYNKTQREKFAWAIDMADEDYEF

CCSCCC(=O)Nc1ccc2c(c1)C(=O)c1cc(NC(=O)CCSCC)ccc1-2
Activity [1]: 102.62% | Activity [2]: 102.87% | Activity [3]: 102.91% | Activity [4]: 108.37% | Activity [5]: 110.74% | Activity [6]: 109.4% | Activity [7]: 107.97% | Activity [8]: 125.15% | Activity [9]: 118.39% | Activity [10]: 100.62% | Activity [11]: 102.08% | Activity [12]: 106.07% | Activity [13]: 92.74% | inhibition [14]: inactive | Activity [15]: 103.35% | Activity [16]: 103.94% | Activity [17]: 108.3% | Activity [18]: 124.53% | Activity [19]: 94.28% | Activity [20]: 107.5% | Activity [21]: 92.9% | Activity [22]: 108.49% | Activity [23]: 104.85% | Activity [24]: 97.04% | Activity [25]: 113.41% | Activity [26]: 117.16% | Activity [27]: 100% | Activity [28]: 117.38% | Activity [29]: 103.44% | Activity [30]: 118.9% | Activity [31]: 112.53% | Activity [32]: 123.89% | Activity [33]: 116.5% | Activity [34]: 109.39% | Activity [35]: 103.59% | Activity [36]: 105.75% | Activity [37]: 104.94% | Activity [38]: 109.71% | Activity [39]: 96.11% | Activity [40]: 122.92% | Activity [41]: 119.93% | Activity [42]: 112.08% | Activity [43]: 85.58% | Activity [44]: 100.1% | Activity [45]: 103.43% | Activity [46]: 101.8% | Activity [47]: 92.1% | Activity [48]: 117.91% | Activity [49]: 86.16% | Activity [50]: 90.06% | Activity [51]: 122.03% | Activity [52]: 96.61% | Activity [53]: 94.51% | Activity [54]: 109.99% | IC50 [55]: > 30000 nM | Activity [56]: 106.91% | Activity [57]: 112.56% | Activity [58]: 69.5%

CN(C)CC(=O)Nc1ccc2c(c1)C(=O)c1cc(NC(=O)CN(C)C)ccc1C2=O
GI50 [59]: 2090 nM | inhibition [60]: Active

CCN(CC)CCC(=O)Nc1ccc2c(c1)C(=O)c1cc(NC(=O)CCN(CC)CC)ccc1C2=O
GI50 [59]: 2570 nM
